Source: patent publication US8211912B2, “Compositions and methods for effecting NAD+ levels using a nicotinamide phosphoribosyl tranferase inhibitor” (Gemin X Pharmaceuticals Canada, priority 2007, dated 2012)
Values joined by “and” are separate entries in the source; they are usually repeats but may differ in a detail not shown here. Equal values may be shown once.

Tests used:
[1] = test system: C666-1 (human undifferentiated nasopharyngeal cancer) cells; assay: Cell viability assay with radiation therapy; format: cell-based; conditions: increasing concentrations of Compound 1, 24 hours prior to radiation therapy
[2] = test system: NAD^+ synthesis in HeLa cells and HeLa cell extracts; assay: Conversion of ^14C nicotinamide or ^14C nicotinic acid to ^14C-labeled NAD^+ (TLC); conditions: Compound 1 20 nM
Method: In vivo: HeLa cells (1×10^6 per sample) were plated 14-16 hours prior to the start of drug treatment. […] Cells were harvested by trypsinization and collected by centrifugation, and cell pellets resuspended in 50 μl of 10 mM NaH2PO4. To extract the radiolabeled nucleotide metabolites, the cells were lysed by 6 freeze-thaw cycles of liquid nitrogen/37° C. water bath. Precipitates were removed by centrifugation at 13,000 g for 20 mins.
In vitro: Untreated HeLa cells were harvested by trypsinization, collected by centrifugation and resuspended at 2.5×10^7 cells/mL in 10 mM NaH2PO4 buffer then cell extracts were made by 6 freeze-thaw cycles as above and cell extracts clarified by centrifugation at 23,000 g at 4° C. for 90 mins. […] The reaction was terminated by incubation at 100° C. for 2 mins. The radiolabeled nucleotides were separated by thin-layer chromatography and identified by comparison with radiolabeled standards of NAD^+, its precursors and metabolites (Moravek Biochemicals; Brea, Calif.). Approximately 10 μL of each sample was spotted onto Silica gel 60 plates (Merck KGaA, EMD chemicals Inc; Gibbstown, N.J.) and resolved in a solvent of isobutyric acid: ammonium hydroxide:water (66:1:33) overnight. The dried TLC plates were then exposed to BAS-MS screens (Fuji Photo Film Co. LTD; Kanagawa, Japan) for 2-3 days, scanned on a Typhoon Imager (Amersham; Piscataway, N.J.). […]

[3] = test system: DMS-114 human small cell lung carcinoma cells; assay: Sensitization to DNA damaging chemotherapeutic agents, relative ATP viability, 3 days; format: cell-based; conditions: 0.75 nM Compound 1 alone, 3 days; one value per experiment series (row agent); 0.00075 µM
Method: (§2) Cells were plated in logarithmic growth phase at 500-20,000 cells per well in 96-well clear bottom plates (Corning; Corning, N.Y.) and cultured for 14 to 16 hours prior to the start of drug treatment. Serial dilutions of Compound 2 and Compound 1 were made in DMSO, diluted 1:50 in RPMI-1640 (Hyclone; Logan, Utah) and then added to tissue culture media at a final concentration of 0.2% DMSO. […] Relative ATP levels were determined by the bioluminescent measuring of cellular ATP levels in each culture well with the ViaLight-HS High Sensitivity Cytotoxicity and Cell Proliferation BioAssay Kit (Cambrex Bioproducts, Cat. No. LT07-311; Charles City, Iowa) according to manufacturer's instructions. Briefly, a cell permeabilizing reagent was added to each culture well in media at the time of viability determination, allowing free ATP to be released from viable cells in the culture. Addition of luciferase to the mixture catalyzes the release of light proportional to the amount of free ATP present, which can then be quantified in a Centro LB 960 luminometer (EG&G Berthold; Oak Ridge, Tenn.); the level of ATP is generally directly proportional to the viability of the cells.
(§3) Sigmoidal dose response curves were then generated using non-linear regression analysis of variable slope by Prism Version 4.00 for Windows (GraphPad Software, Inc.; San Diego, Calif.) and IC50 values calculated.
(§4) The IC50 values for the treatment with the DNA damaging agent were calculated relative to control cells that were treated with DMSO only.

[4] = test system: HeLa cells transfected with pcFLAG-PNC1; assay: Compound 1 cytotoxicity in cells overexpressing yeast PNC1, ViaLight 72 h; conditions: pcFLAG-PNC1 vs pcDNA3, 72 h ViaLight
Method: Viability was measured after 72 hours by ViaLight assay. […] Each point represents the mean and error bars the SD of triplicate samples. […] The concentration of nicotinamide in RPMI 1640 media was […]. HeLa cells were transiently transfected with vector (pcDNA3) or a plasmid expressing a flag-tagged yeast PNC1 gene (pcFLAG-PNC1). […] Relative viability was assessed after 72 hours by ViaLight assay.

human NMPRT = human NMPRT (Homo sapiens, UniProt P43490); assay: Recombinant NMPRT coupled-enzyme fluorescence assay; format: biochemical; set-up: made in house; host or cells: E. coli BL21(DE3)pLysS; conditions: two independent experiments; Cheng-Prusoff; His-Flag tagged recombinant NMPRT
Chain of human NMPRT (P43490 whole entry): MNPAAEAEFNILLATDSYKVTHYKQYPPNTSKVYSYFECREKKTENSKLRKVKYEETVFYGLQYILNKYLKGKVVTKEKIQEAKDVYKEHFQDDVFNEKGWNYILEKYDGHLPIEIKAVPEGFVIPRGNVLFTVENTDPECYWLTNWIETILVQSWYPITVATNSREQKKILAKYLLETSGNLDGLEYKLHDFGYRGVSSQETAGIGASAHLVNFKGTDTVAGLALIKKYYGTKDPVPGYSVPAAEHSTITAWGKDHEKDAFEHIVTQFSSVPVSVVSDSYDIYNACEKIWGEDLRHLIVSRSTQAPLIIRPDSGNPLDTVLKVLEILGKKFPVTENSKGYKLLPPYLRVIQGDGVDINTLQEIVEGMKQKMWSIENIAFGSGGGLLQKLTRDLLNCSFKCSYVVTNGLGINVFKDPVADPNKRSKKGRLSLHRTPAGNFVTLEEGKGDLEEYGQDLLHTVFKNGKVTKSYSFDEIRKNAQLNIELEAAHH
Method: Human NMPRT cDNA (Origene; Rockville, Md.) was cloned into the pET151 vector (Invitrogen; Carlsbad, Calif.). The resulting construct encodes a recombinant NMPRT protein with hexahistidine and FLAG epitope tags at the NH2-terminus. Four liters of BL21(DE3)pLysS bacteria (Invitrogen; Carlsbad, Calif.) at O.D. ˜0.6 in LB media were induced to express the NMPRT protein with 200 μM IPTG (Roche Diagnostics; Mannheim, Germany) for 3.5 hours with shaking (250 rpm) at 37° C. The bacterial cells were harvested by centrifugation at 6,000 g for 15 minutes at 4° C., the supernatant was discarded and the cells frozen at −20° C. […] The protein concentration was determined by Bradford assay (Bio-Rad; Hercules, Calif.).
The activity of recombinant NMPRT was assessed using a coupled-enzyme fluorescence assay based on the quantitation of NAD^+. […] Fluorescence was measured using a Tecan Safire plate reader (Tecan-US; Durham, N.C.) with an excitation wavelength of 560 nm and emission wavelength of 590 nm. The Km for nicotinamide was determined for every preparation of the enzyme and a titration of NAD^+ was run with every assay to ensure that measurements were within the linear range. […] The Ki was calculated using Prism version 4.0 (Graphpad Software, Inc; San Diego, Calif.) and the Cheng-Prusoff Equation. […]
(§1) IC50 value for the compound was determined in IM-9 and HCT-116 cells by ViaLight essay as described supra.

HCT-116 (Colon) = assay: Cell viability assay (72 h, ViaLight, relative ATP levels); format: cell-based
Method: as §1

[5] = test system: Jurkat human T cell leukemia cells; assay: Sensitization to DNA damaging chemotherapeutic agents, relative ATP viability, 3 days; conditions: 0.5 nM Compound 1 alone, 3 days; one value per experiment series (row agent); 0.0005 µM
Method: as §2, §3, §4

IM-9 (Multiple myeloma) = assay: Cell viability assay (72 h, ViaLight, relative ATP levels); format: cell-based, human
Method: as §1

4-[N′-cyano-N″-(6-(4-chlorophenoxy)-hexyl)-N-guanidino]-pyridine [Compound 1]
Cytotoxicity with radiation therapy [1]: higher level of cytotoxicity and an enhanced anticancer activity in comparison to radiation therapy alone
NAD^+ synthesis from nicotinamide ([2]; ^14C nicotinamide): blocks
NAD^+ synthesis from nicotinic acid ([2]; ^14C nicotinic acid): not
Percent viability of DMS-114 cells, 0.75 nM Compound 1 (no DNA damaging chemotherapeutic agent) [3]: 47.7 ± 12% and 61.9 ± 16% and 57.9% and 53.20 ± 9.1%
Effect of yeast PNC1 overexpression on Compound 1 cytotoxicity [4]: rescued
Ki (human NMPRT): 1 nM
IC50 (HCT-116 (Colon)): 2.3 ± 0.64 nM
Percent viability of Jurkat cells, 0.5 nM Compound 1 + No DNA damaging chemotherapeutic agent [5]: 90.1 ± 20% and 80.7 ± 12% and 97.6 ± 3.2% and 76.0 ± 55%
IC50 (IM-9 (Multiple myeloma)): 3.33 ± 0.66 nM
